Results on 24 compounds are retold here after patent US20060073994A1, “Liquid detergent composition” (Conopco, Inc., d/b/a UNILEVER, priority 2004, published 2006).

The experiment has as its system Protease enzyme. Briefly: Residual activity of protease enzyme in liquid detergent formulation with added perfume component after storage. It counts as biochemical. Conditions: 0.06% by weight perfume component added to 'base' liquid formulation; 2 weeks storage at 37° C.; activity determined at 40° C. in TRIS pH 9 buffer, tetrapeptide substrate; relative to t=0. The method, then: The following ‘base’ liquid detergent formulation was prepared: […]
The residual activity of the protease enzyme in all thus-formed formulations after 2 weeks storage at 37° C., was determined at 40° C. in a TRIS pH 9 buffer and using tetrapeptide as substrate. For this determination, the following protocol was used: Samples of 70 mg of the tested liquid formulation were diluted in 10.00 ml MilliQ water. 10 μl of this solution was added to an assay of 205 μl containing 74.4 mM TRIS pH9 and 0.494 mM tetrapeptide (succinyl-Ala-Ala-Pro-Phe-p-Nitroanilide). The absorbance of the tested samples at a wavelength of […] was measured for 15 minutes at 40° C., using a spectrophotometer. The absolute changes in absorbance as compared to the absorbance measured on a freshly prepared calibration sample were correlated to the measured activity of such freshly prepared sample. The measured protease enzyme activity is expressed as GU/ml.
The residual enzyme activity (expressed as %) is the enzyme activity after storage of the liquid formulation concerned divided by the enzyme activity measured at t=0.

For `C/C=C\C(=O)C1C(C)=CCCC1(C)C` (stereo not drawn) [Alpha damascone], the “Residual activity after 2 weeks” value was determined as 68%.

In the case of `O=Cc1ccccc1` [Benzaldehyde], the “Residual activity after 2 weeks” value was determined as 67%.

As to `CC(=O)OCc1ccccc1` [Benzyl acetate], the “Residual activity after 2 weeks” value was determined as 69%.

`O=C/C=C/c1ccccc1` [Cinnamic aldehyde]: the “Residual activity after 2 weeks” value is 58%.

On to `CC(C)=CCCC(C)=CC=O` [Citral], for which the “Residual activity after 2 weeks” value is listed as 36%.

Take `CC(C)=CCCC(C)CC=O` (stereo not drawn) [Citronellal]: the “Residual activity after 2 weeks” value was 62%.

Regarding `CC1=CC(C)C(C=O)CC1` (stereo not drawn) [Cyclal C], the “Residual activity after 2 weeks” value is 45%.

With `CC1=CCC(C(C)C)=CC1` [Gamma terpinolene], the “Residual activity after 2 weeks” value was 54%.

With `CCCCCCC(C=O)=Cc1ccccc1` [Hexylcinnamic aldehyde], the “Residual activity after 2 weeks” value worked out at 81%.

As to `CC(=O)C1(C)CC2=C(CCCC2(C)C)CC1C` (stereo not drawn) [Iso e super], the “Residual activity after 2 weeks” value is reported as 75%.

Turning to `CC(C=O)Cc1ccc(C(C)(C)C)cc1` (stereo not drawn) [Lilial], the “Residual activity after 2 weeks” value was found to be 48%.

As for `C=C(C)[C@H]1CC=C(C)CC1` [Limonene], the “Residual activity after 2 weeks” value is listed as 60%.

In the case of `COC(=O)c1ccccc1N` [Methyl anthranilate], the “Residual activity after 2 weeks” value was 70%.

Consider `CCCCCCCC=O` [Octanal], for which the “Residual activity after 2 weeks” value is listed as 44%.

In the case of `N#CC(=C1CCCCC1)c1ccccc1` [Peonile], the “Residual activity after 2 weeks” value is 73%.

On to `CC(C)=CCCC1=CCC(C)(C=O)CC1` (stereo not drawn) [Precyclemone], for which the “Residual activity after 2 weeks” value worked out at 74%.

As for `CC(C)=C1CC[C@@H](C)CC1=O` [Pulegone], the “Residual activity after 2 weeks” value is 58%.

`CC(C)=CC1CC(C)CCO1` (stereo not drawn) [Rose oxide]: the “Residual activity after 2 weeks” value worked out at 60%.

Take `CC1=CCC(=C(C)C)CC1` [Terpinolene]: the “Residual activity after 2 weeks” value came to 47%.

On to `CCC(C)(O)CCCC(C)C` (stereo not drawn) [Tetra hydrolinalool], for which the “Residual activity after 2 weeks” value was 65%.

`CCCCCCCCCC/C=C/C=O` [Tridecylenic aldehyde]: the “Residual activity after 2 weeks” value stood at 45%.

Take `CC(CC=O)c1ccccc1` (stereo not drawn) [Trifernal]: the “Residual activity after 2 weeks” value turned out to be 74%.

Consider `COc1cc(C=O)ccc1O` [Vanillin], for which the “Residual activity after 2 weeks” value was 43%.

In the case of Vertofix coeur, the “Residual activity after 2 weeks” value was 68%.
